Measurements from patent publication US20230115176A1 (Ra Pharmaceuticals, Inc., priority 2019, published 2023).
pIC50, pKd: −log10 of the molar value. Values after ≈ are worked out from the molar mass of the structure shown.

Assays:
Human C5 [1] = target: T1, Human C5 (Homo sapiens, UniProt P01031); experiment: Red blood cell (RBC) hemolysis assay, luminescent (Example 24, Table 29); format: cell-based; details: sheep EA cells, […] C5-depleted human serum, 0.5 nM human C5, 1 hour at 37° C., luminescence (Table 29)
T1 construct: purchased Complement Technology
T1 sequence (P01031 19-1676): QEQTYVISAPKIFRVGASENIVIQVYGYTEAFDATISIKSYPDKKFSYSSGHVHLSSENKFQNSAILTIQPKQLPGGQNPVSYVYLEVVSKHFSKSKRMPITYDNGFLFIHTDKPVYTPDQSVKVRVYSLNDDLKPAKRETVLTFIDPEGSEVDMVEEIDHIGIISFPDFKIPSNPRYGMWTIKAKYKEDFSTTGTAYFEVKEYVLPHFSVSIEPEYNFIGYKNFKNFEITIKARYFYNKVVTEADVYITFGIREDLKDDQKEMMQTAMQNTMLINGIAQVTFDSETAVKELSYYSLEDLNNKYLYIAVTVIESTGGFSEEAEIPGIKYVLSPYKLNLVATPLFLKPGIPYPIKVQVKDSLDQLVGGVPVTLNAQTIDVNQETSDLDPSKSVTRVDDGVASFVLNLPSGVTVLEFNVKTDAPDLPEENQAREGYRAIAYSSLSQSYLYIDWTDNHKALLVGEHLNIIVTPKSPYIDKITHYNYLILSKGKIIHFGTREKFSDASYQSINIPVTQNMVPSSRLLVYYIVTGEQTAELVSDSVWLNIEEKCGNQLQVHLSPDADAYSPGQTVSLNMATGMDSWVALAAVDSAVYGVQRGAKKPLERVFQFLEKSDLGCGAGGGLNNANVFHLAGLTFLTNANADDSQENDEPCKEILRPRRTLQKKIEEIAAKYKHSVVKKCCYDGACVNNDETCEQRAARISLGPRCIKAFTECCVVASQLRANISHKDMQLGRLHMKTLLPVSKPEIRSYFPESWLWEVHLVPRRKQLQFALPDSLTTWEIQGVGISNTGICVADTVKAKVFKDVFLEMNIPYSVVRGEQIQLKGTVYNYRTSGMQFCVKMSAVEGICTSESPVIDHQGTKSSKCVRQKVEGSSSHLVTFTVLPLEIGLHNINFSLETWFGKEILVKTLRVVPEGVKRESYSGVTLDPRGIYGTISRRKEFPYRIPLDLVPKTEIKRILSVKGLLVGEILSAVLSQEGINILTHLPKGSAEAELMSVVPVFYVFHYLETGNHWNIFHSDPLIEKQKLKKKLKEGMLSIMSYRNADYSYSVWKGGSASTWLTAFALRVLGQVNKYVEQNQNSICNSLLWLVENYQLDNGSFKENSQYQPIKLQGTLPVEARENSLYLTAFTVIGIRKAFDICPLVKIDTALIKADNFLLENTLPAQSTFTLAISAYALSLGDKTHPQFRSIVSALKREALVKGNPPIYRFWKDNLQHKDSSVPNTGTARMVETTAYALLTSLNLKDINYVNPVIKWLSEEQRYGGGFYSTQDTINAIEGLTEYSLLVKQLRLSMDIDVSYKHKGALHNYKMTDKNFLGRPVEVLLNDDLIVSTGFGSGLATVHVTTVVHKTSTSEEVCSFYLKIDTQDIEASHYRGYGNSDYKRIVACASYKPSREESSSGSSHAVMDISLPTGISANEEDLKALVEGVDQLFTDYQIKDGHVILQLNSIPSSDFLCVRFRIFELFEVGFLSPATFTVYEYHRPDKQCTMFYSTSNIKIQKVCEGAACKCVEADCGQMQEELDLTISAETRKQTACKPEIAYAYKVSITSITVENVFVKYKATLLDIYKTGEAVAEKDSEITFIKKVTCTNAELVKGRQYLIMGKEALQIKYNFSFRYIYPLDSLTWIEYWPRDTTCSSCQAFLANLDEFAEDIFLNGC
From the text: Numbers in parenthesis following the compound number indicate alternate enantiomers (as distinguished by retention time during chromatographical separation).

[2] = Kinetic solubility in PBS pH 7.4, HPLC-UV (Example 21, Table 27); format: physicochemical; details: phosphate buffered saline, aqueous buffer, kinetic from dmso stock, 0.5 M PBS, shaken minimum 24 h at approximately 25° C., HPLC-UV 270 nm
In short: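 10 mM DMSO stock diluted into 0.05 M PBS pH 7.4 (5% DMSO final), in triplicate, shaken ≥24 h at ~25 °C, then filtered by centrifugation. Supernatant concentration by HPLC-UV at 270 nm against external DMSO standards (15.6–500.0 μM).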

Human C5 [3] = target: T1, Human C5; experiment: Red blood cell (RBC) hemolysis assay, luminescent (Example 13, Table 22); format: cell-based; details: sheep EA cells, […] C5-depleted human serum, 0.5 nM human C5, 1 hour 37° C., luminescence; further: 1.5% C5-depleted human serum
From the text: (§1) Compound CU0136 is a racemic mixture of Compound CU0186 and CU0187. Numbers in parenthesis following compound numbers indicate alternate enantiomers (as distinguished by retention time during chromatographical separation).

[4] = target: human C5 complement protein (Homo sapiens, UniProt P01031); experiment: Surface plasmon resonance (SPR), immobilized human C5, 37° C. (Example 12, Table 21); format: binding; details: where a range of compound concentrations were analyzed, the lowest value obtained
human C5 complement protein, sequence (P01031 19-1676): as above
From the text: as §1

Structure (SMILES)	pIC50 (Human C5 [1])	solubility kinetic [2] [µM]	pIC50 (Human C5 [3])	pKd [4]
CCCCCOc1cc(N2CC(CNC(=O)C(=O)N(C)C)CN(Cc3cc(F)ccc3OC)C2=O)ccc1OC (stereo not drawn) [SC0055]	7.42			
CCCCCOc1cc(N2CCCN(Cc3ccc(CC(=O)N[C@@H]4CNC[C@H]4F)cc3OC)C2=O)ccc1OC [CU0108]		> 500	7.71	8.92
CCCCCOc1cc(N2CC3(COC3)CN(Cc3ccnc4c3ccn4CC(=O)N(C)C)C2=O)ccc1OC [SC0069]	6.89			
CCCCCOc1cc(N2CC(C(=O)N(C)C)CN(Cc3cc(F)ccc3OC)C2=O)ccc1OC (stereo not drawn) [SC0048]	7.28			
CCCCCOc1cc(N2CC(COCC(=O)O)CN(Cc3cc(F)ccc3OC)C2=O)ccc1OC (stereo not drawn) [SC0024]	7.23			
CCCCCOc1cc(N2CCCN(Cc3ccc(CC(=O)N4CCCN(C)CC4)cc3OC)C2=O)ccc1OC [CU0104]		269 (≈ 152 µg/mL)	7.62	9.22
CCCCCOc1cc(N2CC(C)CN(Cc3cc(F)ccc3OC)C2=O)ccc1OC (stereo not drawn) [SC0018]	7.35			
CCCCCOc1cc(N2CC[C@@H](C)N(Cc3cccc4c3ccn4CC(=O)N(C)C)C2=O)ccc1OC [SC0014]	6.84			
CCCCCOc1cc(N2CC[C@H](C)N(Cc3cccc4[nH]ccc34)C2=O)ccc1OC [SC0010]	7.61			
CCCCCOc1cc(N2CC(C(=O)O)CN(Cc3cc(F)ccc3OC)C2=O)ccc1OC (stereo not drawn) [SC0059]	7.24			
CCCCCOc1cc(N2CC(CO)CN(Cc3ccc(Br)cc3OC)C2=O)ccc1OC (stereo not drawn) [SC0027]	7.19			
CCCCCOc1cc(N2CC3(CN(Cc4cc(F)ccc4OC)C2=O)CC3(F)F)ccc1OC (stereo not drawn) [SC0068]	7.11			
CCCCCOc1cc(N2CCCN(Cc3ccc(CC(=O)N4CC(=O)N(C)C(C)C4)cc3OC)C2=O)ccc1OC (stereo not drawn) [CU0107]		266 (≈ 154 µg/mL)	7.42	8.70
CCCCCOc1cc(N2CC(COCC(=O)NC)CN(Cc3cc(F)ccc3OC)C2=O)ccc1OC (stereo not drawn) [SC0030]	7.02			
CCCCCOc1cc(N2CCCN(Cc3ccc(CC(=O)N[C@H]4CN(C)C[C@H]4F)cc3OC)C2=O)ccc1OC [CU0106]		453 (≈ 259 µg/mL)	7.36	8.70
CCCCCOc1cc(N2CC(O)CN(Cc3cc(F)ccc3OC)C2=O)ccc1OC (stereo not drawn) [SC0058]	7.29			
CCCCCOc1cc(N2CCCN(Cc3ccc(CC(=O)NC4CCN(C(C)=O)C4)cc3OC)C2=O)ccc1OC (stereo not drawn) [CU0110]		295 (≈ 171 µg/mL)	7.79	8.70
CCCCCOc1cc(N2CC(CNC(=O)c3cnco3)CN(Cc3cc(F)ccc3OC)C2=O)ccc1OC (stereo not drawn) [SC0053]	7.62			
CCCCCOc1cc(N2C(=O)CN(Cc3cc(F)ccc3OC)C2=O)ccc1OC [SC0063]	6.01			
CCCCCOc1cc(N2CC(COCC(=O)NCCOC)CN(Cc3cc(F)ccc3OC)C2=O)ccc1OC (stereo not drawn) [SC0037]	6.91			
CCCCCOc1cc(N2CC(CN)CN(Cc3cc(F)ccc3OC)C2=O)ccc1OC (stereo not drawn) [SC0034]	6.94			
CCCCCOc1cc(N2CC[C@H](C)N(Cc3cccc4c3ccn4Cc3cccnc3)C2=O)ccc1OC [SC0013]	7.33			
CCCCCOc1cc(N2C[C@H](C)CN(Cc3cc(F)ccc3OC)C2=O)ccc1OC [SC0020]	7.18			

Structure (SMILES)	pIC50 (Human C5 [1])	solubility kinetic [2] [µM]	pIC50 (Human C5 [3])	pKd [4]
CCCCCOc1cc(N2CC(CNC(=O)c3ccccn3)CN(Cc3cc(F)ccc3OC)C2=O)ccc1OC (stereo not drawn) [SC0054]	7.46			
CCCCCOc1cc(N2CC[C@@H](C)N(Cc3ccnc4[nH]ccc34)C2=O)ccc1OC [SC0015]	6.65			
CCCCCOc1cc(N2CC[C@H](C)N(Cc3cccc4c3ccn4CC(=O)NC3CC(O)C3)C2=O)ccc1OC (stereo partly drawn) [SC0006]	7.95			
CCCCCOc1cc(N2CC(C)CN(Cc3ccc(CC(=O)O)cc3OC)C2=O)ccc1OC (stereo not drawn) [SC0019]	7.25			
CCCCCOc1cc(N2CC(CNC(=O)c3ccnn3C)CN(Cc3cc(F)ccc3OC)C2=O)ccc1OC (stereo not drawn) [SC0057]	7.32			
CCCCCOc1cc(N2CC(C(=O)N(C)CCO)CN(Cc3cc(F)ccc3OC)C2=O)ccc1OC (stereo not drawn) [SC0049]	7.17			
CCCCCOc1cc(N2CC(COCC(N)=O)CN(Cc3cc(F)ccc3OC)C2=O)ccc1OC (stereo not drawn) [SC0028]	7.27			
CCCCCOc1cc(N2CC[C@H](C)N(Cc3cccc4c3ccn4CC(=O)N3CCOCC3)C2=O)ccc1OC [SC0012]	7.55			
CCCCCOc1cc(N2CC3(CC3)CN(Cc3ccnc4c3ccn4CC(=O)N(C)C)C2=O)ccc1OC [SC0065]	7.41			
CCCCCOc1cc(N2CCCN(Cc3cccc4c3c(C)cn4CC(=O)N(C)C)C2=O)ccc1OC [CU0231]		64 (≈ 33.3 µg/mL)	7.69	9.05
CCCCCOc1cc(N2CCCN(Cc3ccc(CC(=O)NC4CCN(C(C)C)CC4)cc3OC)C2=O)ccc1OC [CU0109]		> 500	7.73	8.96
CCCCCOc1cc(N2CC3(CN(Cc4cc(F)ccc4OC)C2=O)CN(S(=O)(=O)c2ccc(C)cc2)C3)ccc1OC [SC0071]	6.06			
CCCCCOc1cc(N2CC(C(=O)N3CCS(=O)(=O)C3)CN(Cc3cc(F)ccc3OC)C2=O)ccc1OC (stereo not drawn) [SC0045]	7.61			
CCCCCOc1cc(N2CC(C(N)=O)CN(Cc3cc(F)ccc3OC)C2=O)ccc1OC (stereo not drawn) [SC0044]	7.83			
CCCCCOc1cc(N2CCCN(Cc3ccc(CCN4CCCC4)cc3OC)C2=O)ccc1OC [CU0123]		404 (≈ 206 µg/mL)	7.77	8.38
CCCCCOc1cc(N2CC3(CN(C(=O)OCC)C3)CN(Cc3cc(F)ccc3OC)C2=O)ccc1OC [SC0067]	7.23			
C=C1CN(Cc2ccc(Br)cc2OC)C(=O)N(c2ccc(OC)c(OCCCCC)c2)C1 [SC0062]	6.76			
CCCCCOc1cc(N2CC(C(=O)NC)CN(Cc3cc(F)ccc3OC)C2=O)ccc1OC (stereo not drawn) [SC0046]	7.48			
CCCCCOc1cc(N2CC(CO)CN(Cc3cc(F)ccc3OC)C2=O)ccc1OC (stereo not drawn) [SC0016(2)]	7.89			
CCCCCOc1cc(N2CC(COCC(=O)N3CCOCC3)CN(Cc3cc(F)ccc3OC)C2=O)ccc1OC (stereo not drawn) [SC0029]	7.07			
CCCCCOc1cc(N2CC(CNC(=O)C(F)(F)F)CN(Cc3cc(F)ccc3OC)C2=O)ccc1OC (stereo not drawn) [SC0036]	6.91			
CCCCCOc1cc(N2C[C@@H](CO)CN(Cc3cc(F)ccc3OC)C2=O)ccc1OC [SC0072]	7.85			
CCCCCOc1cc(N2C[C@@H](C)CN(Cc3cc(F)ccc3OC)C2=O)ccc1OC [SC0021]	7.15			

Structure (SMILES)	pIC50 (Human C5 [1])	solubility kinetic [2] [µM]	pIC50 (Human C5 [3])	pKd [4]
CCCCCOc1cc(N2CC(Cn3ncc4ccccc43)CN(Cc3cc(F)ccc3OC)C2=O)ccc1OC (stereo not drawn) [SC0043]	6.47			
CCCCCOc1cc(N2CC(O)(CO)CN(Cc3cc(F)ccc3OC)C2=O)ccc1OC (stereo not drawn) [SC0022]	6.85			
CCCCCOc1cc(N2CC(Cn3cc(CO)nn3)CN(Cc3cc(F)ccc3OC)C2=O)ccc1OC (stereo not drawn) [SC0040]	6.68			
CCCCCOc1cc(N2CC(COCC(=O)N(C)C)CN(Cc3cc(F)ccc3OC)C2=O)ccc1OC (stereo not drawn) [SC0025]	7.23			
CCCCCOc1cc(N2CC(Cn3ccnc3)CN(Cc3cc(F)ccc3OC)C2=O)ccc1OC (stereo not drawn) [SC0042]	6.59			
CCCCCOc1cc(N2CCCN(Cc3ccc(CC(=O)N4CCOC(COC)C4)cc3OC)C2=O)ccc1OC (stereo not drawn) [CU0105]		427 (≈ 249 µg/mL)	6.88	8.72
CCCCCOc1cc(N2CC[C@H](C)N(Cc3cccc4c3ccn4CC(=O)N3CCNC(=O)C3)C2=O)ccc1OC [SC0003]	8.00			
CCCCCOc1cc(N2CC(C(=O)NCCOC)CN(Cc3cc(F)ccc3OC)C2=O)ccc1OC (stereo not drawn) [SC0047]	7.44			
CCCCCOc1cc(N2CC(Cn3cccn3)CN(Cc3cc(F)ccc3OC)C2=O)ccc1OC (stereo not drawn) [SC0033]	6.99			
CCCCCOc1cc(N2CC(COCc3ccncn3)CN(Cc3cc(F)ccc3OC)C2=O)ccc1OC (stereo not drawn) [SC0023]	6.95			
CCCCCOc1cc(N2CCN(Cc3cc(F)ccc3OC)C2=O)ccc1OC [CU0002]			7.38	7.08
CCCCCOc1cc(N2CCCN(Cc3ccnc4c3ccn4C3CCN(C)C3=O)C2=O)ccc1OC (single isomer, unassigned) [CU0039(2)]			7.52	8.19
CCCCCOc1cc(N2CCCN([C@@H](C)c3ccnc4c3ccn4CC(=O)N3CCOCC3)C2=O)ccc1OC [CU0045]			7.48	7.59
CCCCCOc1cc(N2CCCN(Cc3ccc(CN(CC)CC)cc3OC)C2=O)ccc1OC [CU0121]			7.41	7.56
CCCCCOc1cc(N2CCCN(Cc3cccc4c3c(F)cn4CC(=O)N(C)C)C2=O)ccc1OC [CU0232]		< 10	7.67	8.89
CCCCCOc1cc(N2CCN(Cc3cc(F)ccc3Cl)C2=O)ccc1OC [CU0013]			6.22	6.34
CCCCCOc1cc(N2CCN(Cc3cccnc3OC)C2=O)ccc1OC [CU0017]			6.97	6.73
CCCCCOc1cc(N2CCCN(Cc3ccnc4c3ccn4CC(=O)N3CC[C@@H](OC)C3)C2=O)ccc1OC [CU0041]			7.26	7.77
CCCCCOc1cc(N2CCCN(Cc3cc(-c4cnn(C5COC5)c4)ccc3OC)C2=O)ccc1OC [CU0129]			7.21	7.62
CCCCCOc1cc(N2CCCN(Cc3ccc(CC(=O)N4CCCOCC4)cc3Cl)C2=O)ccc1OC [CU0117]			7.49	8.08
CCCCCOc1cc(N2CCCN(Cc3cccc4c3ccn4CC3(O)CCNCC3)C2=O)ccc1OC [CU0021]			7.84	8.82
CCCCCOc1cc(N2CCCN([C@@H](C)c3ccnc4c3ccn4CC(=O)N(C)C)C2=O)ccc1OC [CU0037]			7.33	7.81
